Measured values published in patent US7754715B2, “Sustained-release oral molsidomine composition for treating atherosclerosis” (Therabel Pharmaceuticals Limited, priority 2004, dated 2010).
Entries after “also recorded” stand apart in the source; their conditions may differ.

Experiments:
[1] = Weekly frequency of angina attacks and of consumption of s.l. ISDN 5 mg tablets in clinical study; format: in vivo, human
Procedure: This study comprised 3 consecutive phases: • a 7-day pre-study under placebo; • a 4-week double-blind and double-placebo randomized crossover study during which the patients received alternately (2×2 weeks) a molsidomine-based formulation containing an 8 mg dose, currently marketed in Belgium under the name Corvatard® (2 daily dosage units), and a molsidomine-based formulation containing a 16 mg dose, effective over 24 hours, currently marketed in Belgium under the name Coruno® (1 daily dosage unit); and • a 12-month study during which the 172 patients received a molsidomine-based formulation containing a 16 mg dose, currently marketed in Belgium under the name Coruno®. It is pointed out that, during the second phase of the study, the concomitant use of other antianginal drugs was prohibited with the exception of sublingual (s.l.) isosorbide dinitrate (ISDN) 5 mg in tablet form, which could be consumed ad libitum to alleviate the symptoms of anginal pain. In the course of this study, the weekly frequency of angina attacks and the weekly frequency of consumption of s.l. ISDN 5 mg tablets were noted.

[2] = tested on: ICAM-1s (circulating soluble ICAM-1); test: Circulating soluble ICAM-1 in serum (ELISA) in long-term clinical study of patients with stable angina pectoris; format: in vivo, human; settings: for concentration of ICAM-1s, Mean ± SD: 4 weeks double-blind
Procedure: This study comprised 3 consecutive phases: • a 7-day pre-study under placebo; • a 4-week double-blind and double-placebo randomized crossover study during which the patients received alternately (2×2 weeks) a molsidomine-based formulation containing an 8 mg dose, currently marketed in Belgium under the name Corvatard® (2 daily dosage units), and a molsidomine-based formulation containing a 16 mg dose, effective over 24 hours, currently marketed in Belgium under the name Coruno® (1 daily dosage unit); and • a 12-month study during which the 172 patients received a molsidomine-based formulation containing a 16 mg dose, currently marketed in Belgium under the name Coruno®. Also, and of greatest importance, the concentrations of ICAM-1s were measured after each of the three phases of the study, the first measurement constituting the baseline. More precisely, the concentrations of ICAM-1s were measured as follows: Blood samples (5 ml) were taken in non-heparinized tubes. These samples were kept at room temperature and then centrifuged. The serum was separated off and immediately frozen at −20° C. until required for analysis. The circulating ICAM-1 was measured using a commercially available ELISA test (R&D Systems Europe).

[3] = 4-week treatment, versus baseline

## CCOC(=O)[N-]c1cn(N2CCOCC2)n[o+]1 [molsidomine]
[1]; [3]
  consumption of sublingual nitro compounds: decreased
  number of angina attacks: decreased
[1]; after one year
  antianginal effects: maintained or even improved
[2]; 4-week treatment (16 mg o.a.d. or 8 mg b.i.d.)
  effect on the levels of circulating ICAM-1s: no effect; also recorded: did not cause any effect
[2]; alcohol <1 glass/day, N=161
  concentration of ICAM-1s, Mean ± SD: 276 ± 89 ng/mL
[2]; alcohol ≧1 glass/day, N=11
  concentration of ICAM-1s, Mean ± SD: 242 ± 38 ng/mL
[2]; all patients, N=172
  concentration of ICAM-1s, Mean ± SD: 274 ± 87 ng/mL
[2]; both concomitant drugs, N=20
  concentration of ICAM-1s, Mean ± SD: 247 ± 45 ng/mL
[2]; concomitant beta-blockers, N=30
  concentration of ICAM-1s, Mean ± SD: 281 ± 58 ng/mL
[2]; concomitant statins, N=38
  concentration of ICAM-1s, Mean ± SD: 277 ± 70 ng/mL
[2]; former smokers, N=59
  concentration of ICAM-1s, Mean ± SD: 277 ± 67 ng/mL
[2]; men, N=117
  concentration of ICAM-1s, Mean ± SD: 264 ± 58 ng/mL
[2]; no concomitant medication, N=78
  concentration of ICAM-1s, Mean ± SD: 276 ± 112 ng/mL
[2]; non-smokers, N=81
  concentration of ICAM-1s, Mean ± SD: 262 ± 74 ng/mL
[2]; smokers, N=32
  concentration of ICAM-1s, Mean ± SD: 297 ± 138 ng/mL
[2]; women, N=55
  concentration of ICAM-1s, Mean ± SD: 293 ± 128 ng/mL
